Reference: patent publication US20250325572A1, “TREATMENTS FOR PAIN” (Sevenless Therapeutics Limited, priority 2022, published 2025)

Tests used:
[1] = system: NGF stimulated pERK1/2 activation in PC-12 cells; experiment: Tanezumab / SOS1 inhibitor combination in the NGF stimulated pERK1/2 PC-12 assay; assay type: cell-based, rat
Procedure: The combined inhibitory effect of a selective, small molecule SOS1 inhibitor and known antibody based NGF inhibitor, Anti-NGF was monitored via an HTRF readout measuring phosphorylation of ERK1/2 by NGF activation. All assays were performed in rat adrenal PC-12 cells (Merck) that had been serum-starved for a period of 24 hours in RPMI-1640 growth medium (Gibco) supplemented with 1% heat-inactivated horse serum (Merck), 0.5% heat-inactivated fetal bovine serum (FBS), 1% penicillin-streptomycin and 2 mM L-Glutamine unless specified otherwise. Reagents from the HTRF commercial kit (Cisbio) were prepared according to the manufacturer's instructions.
PC-12 cells were isolated from routine cellular culture and plated at an appropriate cell density (typically 25,000 cells per well) in 384-well plates for 24 hours under serum-starved conditions. Working preparations of varying Anti-NGF (Abcam) concentrations and a fixed NGF concentration were prepared in serum-starved media and pre-incubated for 30 minutes (37° C./5% CO2). […] A 2-hour incubation at room temperature was performed prior to fluorescence signal being measured in a microplate reader (PHERAstar FSX, BMG Labtech).
Percentage inhibition values were calculated per compound concentration by normalising the sample data to the high and low controls used within each plate (+/−250 ng/mL NGF respectively). […] Response data were then plotted against the molar logarithm for each SOS1 inhibitor compound concentration together with the determined fit results for display purposes. […] The mean percentage inhibition value calculated for both the top and bottom concentration of SOS1 inhibitor compound tested per Anti-NGF:NGF combination was extracted and compared in tabular form across the different Anti-NGF:NGF combinations tested.
The ability of an NGF inhibitor Tanezumab in combination with a SOS1 inhibitor to treat pain was measured in the Inhibition of Nerve Growth Factor (NGF) stimulated phospho-Extracellular Regulated Kinase 1 and 2 (pERK1/2) activation in the PC-12 cell line assay.

[2] = Analgesic effect of SOS1 inhibitor combined with Tanezumab; assay type: in vivo
[3] = system: knee osteoarthritis pain model; conditions: rats, 10 mg/kg; cited from earlier work

Tanezumab: an example of an anti-NGF antibody
efficacy ([1]; Tanezumab 50 nM in combination with SOS1 inhibitor 500 nM): ~96% | efficacy ([1]; Tanezumab alone, 50 nM): 90% | efficacy ([1]; tanezumab alone, 200 nM): 100% | analgesic effect ([2]; 0.3 mg/kg Tanezumab in combination with low doses of a SOS1 inhibitor): significant analgesic effect | increase in analgesia versus dose ([2]; fixed dose SOS1 inhibitor, varied antibody dose): efficacy is dose related | efficacy [3]: shows efficacy
